Reference: patent US20120122870A1, “Treatment Of Ischemia-Reperfusion Injury” (MUSC FOUNDATION FOR RESEARCH DEVELOPMENT, priority 2009, published 2012)

Legend:
[1] = tested on: endogenous SK activity in MDA-MB-231 cells; assay: Cellular S1P production (endogenous SK activity) in MDA-MB-231 cells; format: cell-based; conditions: percentage of S1P production inhibited; for inhibition at 20 µg/mL: Homo sapiens, MDA-MB-231, MDA-MB-231 cells incubated with 20 μg/mL of compound
How it was run: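 MDA-MB-231 cells treated with 20 μg/mL compound and assayed for endogenous SK activity, reported as % inhibition of S1P production. For IC50, cells received varying compound concentrations and S1P produced was measured; IC50 is the concentration giving 50% inhibition.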

recombinant human SK = target: T1, recombinant human SK (Homo sapiens, UniProt Q9NYA1); assay: Recombinant human SK activity assay ([3H]sphingosine to [3H]S1P); format: biochemical; conditions: Human SK incubated with 6 μg/mL of compound; percentage of SK activity inhibited
T1 construct: GST (glutathione-S-transferase) (N); made in house; host or cells: bacteria (pGEX bacterial expression vector)
Description: SK activity is measured by incubation of the recombinant SK with [^3H]sphingosine and 1 mM ATP under defined conditions, followed by extraction of the assay mixture with chloroform:methanol under basic conditions. […] Radioactivity in aliquots of the aqueous phase is then quantified as a measure of [^3H]S1P formation.
Human SK was incubated with 6 μg/mL of the indicated compounds, and then assayed for activity as described above. Values in the column labeled “Recombinant SK (% inhibition)” represent the percentage of SK activity that was inhibited. MDA-MB-231 cells were incubated with 20 μg/mL of the indicated compounds and then assayed for endogenous SK activity as indicated above. Values in the column labeled “Cellular S1P (% inhibition)” represent the percentage of S1P production that was inhibited. Additionally, MDA-MB-231 cells were treated with varying concentration of certain compounds and the amount of S1P produced by the cells was determined. Values in the column labeled “Cellular S1P IC50 (μM)” represent the concentration of compound required to inhibit the production of S1P by 50%. ND=not determined.

T1 sequence (Q9NYA1 whole entry): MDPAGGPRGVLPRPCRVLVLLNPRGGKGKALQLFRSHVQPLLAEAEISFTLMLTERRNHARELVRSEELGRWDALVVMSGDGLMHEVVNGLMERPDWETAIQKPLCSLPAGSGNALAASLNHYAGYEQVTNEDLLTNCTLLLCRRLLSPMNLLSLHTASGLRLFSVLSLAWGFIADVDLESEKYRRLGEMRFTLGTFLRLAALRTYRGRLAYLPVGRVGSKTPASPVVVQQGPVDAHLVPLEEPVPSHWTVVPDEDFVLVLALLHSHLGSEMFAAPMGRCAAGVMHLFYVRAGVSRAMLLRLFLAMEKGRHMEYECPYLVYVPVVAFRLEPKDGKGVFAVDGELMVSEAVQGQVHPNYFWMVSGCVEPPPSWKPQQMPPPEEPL

Row | SMILES | inhibition at 20 µg/mL [1] [%] | inhibition at 6 µg/mL (recombinant human SK) [%] | further results
1 | O=C(NCCc1ccc(O)cc1)C12CC3CC(C1)CC(c1ccc(Cl)cc1)(C3)C2 [A40, 3-(4-Chloro-phenyl)-adamantane-1-carboxylic acid [2-(4-hydroxy-phenyl)-ethyl]-amide] | 52 | 100 | 
2 | O=C(NCc1ccncc1)C12CC3CC(CC(C3)C1)C2 [A60, Adamantane-1-carboxylic acid (pyridin-4-ylmethyl)-amide] | 23 | 0 | 
3 | O=C(NCc1ccc(O)c(O)c1)C12CC3CC(CC(C3)C1)C2 [A35, Adamantane-1-carboxylic acid 3,4-dihydroxy-benzylamide] | 0 | 87 | 
4 | O=C(NCCc1ccc(F)cc1)C12CC3CC(C1)CC(c1ccc(Cl)cc1)(C3)C2 [A38, 3-(4-Chloro-phenyl)-adamantane-1-carboxylic acid [2-(4-fluoro-phenyl)-ethyl]-amide] | 34 | 40 | 
5 | O=C(Nc1cccc(CO)c1)C12CC3CC(C1)CC(c1ccc(Cl)cc1)(C3)C2 [A9, 3-(4-Chloro-phenyl)-adamantane-1-carboxylic acid (3-hydroxymethyl-phenyl)-amide] | 40 | 84 | 
6 | CCn1c2ccccc2c2cc(NCC34CC5CC(C3)CC(c3ccc(Cl)cc3)(C5)C4)ccc21 [A89, [3-(4-Chloro-phenyl)-admantan-1-ylmethyl]-(9-ethyl-9H-carbazol-3-yl)-amine] |  |  | Cellular S1P (% inhibition) ([1]; MDA-MB-231 cells incubated with 20 μg/mL of compound): 1%; Recombinant SK (% inhibition) (recombinant human SK): 37%
7 | CN1CCCC1CCNC(=O)C12CC3CC(CC(C3)C1)C2 (stereo not drawn) [A56, Adamantane-1-carboxylic acid [2-(1-methyl-pyrrolidin-2-yl)-ethyl]-amide] | 40 | 33 | 
8 | O=C(Nc1nc(-c2ccc(Cl)cc2)cs1)C12CC3CC(CC(C3)C1)C2 [A69, Adamantane-1-carboxylic acid [4-(4-chloro-phenyl)-thiazol-2-yl]-amide] | 13 | 40 | 
9 | O=C(NCc1ccccc1)C12CC3CC(C1)CC(c1ccc(Cl)cc1)(C3)C2 [A12, 3-(4-Chloro-phenyl)-adamantane-1-carboxylic acid benzylamide] | 3 | 36 | 
10 | CC(=O)Oc1ccc(NC(=O)C23CC4CC(C2)CC(c2ccc(Cl)cc2)(C4)C3)cc1 [A7, Acetic acid 4-{[3-(4-chloro-phenyl)-adamantane-1-carbonyl]-amino}-phenyl ester] | 96 | 100 | 
11 | CC(NC(=O)C12CC3CC(C1)CC(c1ccc(Cl)cc1)(C3)C2)c1ccc(Br)cc1 (stereo not drawn) [A29, 3-(4-Chloro-phenyl)-adamantane-1-carboxylic acid [1-(4-bromo-phenyl)-ethyl]-amide] | 0 | 55 | 
12 | O=C(NCCCc1ccccc1)C12CC3CC(C1)CC(c1ccc(Cl)cc1)(C3)C2 [A48, 3-(4-Chloro-phenyl)-adamantane-1-carboxylic acid (3-phenyl-propyl)-amide] | 14 | 36 | 
13 | O=C(NCc1cccc(OC(F)(F)F)c1)C12CC3CC(C1)CC(c1ccc(Cl)cc1)(C3)C2 [A33, 3-(4-Chloro-phenyl)-adamantane-1-carboxylic acid 3-trifluoromethoxy-benzylamide] |  | 10 | 
14 | O=C(/C=C/c1ccc(Cl)cc1)C12CC3CC(C1)CC(c1ccc(Cl)cc1)(C3)C2 [A130, 3-(4-Chloro-phenyl)-1-[3-(4-chloro-phenyl)-adamantan-1-yl]-propenone] |  | 38 | 
15 | CN1CCCC1CCNCC12CC3CC(C1)CC(c1ccc(Cl)cc1)(C3)C2 (stereo not drawn) [A86, [3-(4-Chloro-phenyl)-adamantan-1-ylmethyl]-[2-(1-methyl-pyrrolidin-2-yl)-ethyl]-amine] |  | 6 | 
16 | O=C(NCCc1ccc2c(c1)OCO2)C12CC3CC(C1)CC(c1ccc(Cl)cc1)(C3)C2 [A45, 3-(4-Chloro-phenyl)-adamantane-1-carboxylic acid (2-benzo[1,3]dioxol-5-yl-ethyl)-amide] |  | 64 | 
17 | CCSCCNC(=O)C12CC3CC(C1)CC(c1ccc(Cl)cc1)(C3)C2 [A3, 3-(4-Chloro-phenyl)-adamantane-1-carboxylic acid (2-ethylsulfanyl-ethyl)-amide] |  | 6 | 
18 | O=C(/C=C/c1ccc(O)cc1)C12CC3CC(C1)CC(c1ccc(Cl)cc1)(C3)C2 [A132, 1-[3-(4-Chloro-phenyl)-adamantan-1-yl]-3-(4-hydroxy-phenyl)-propenone] |  | 8 | 

Row | SMILES | inhibition at 20 µg/mL [1] [%] | inhibition at 6 µg/mL (recombinant human SK) [%] | further results
19 | O=C(NCc1ccc(F)c(Cl)c1)C12CC3CC(C1)CC(c1ccc(Cl)cc1)(C3)C2 [A23, 3-(4-Chloro-phenyl)-adamantane-1-carboxylic acid 3-chloro-4-fluoro-benzylamide] |  | 0 | 
20 | O=C(NCCN1CCNCC1)C12CC3CC(C1)CC(c1ccc(Cl)cc1)(C3)C2 [A59, 3-(4-Chloro-phenyl)-adamantane-1-carboxylic acid (2-piperazin-1-yl-ethyl)-amide] |  | 0 | 
21 | O=C(Nc1nnn[nH]1)C12CC3CC(C1)CC(c1ccc(Cl)cc1)(C3)C2 [A67, 3-(4-Chloro-phenyl)-adamantane-1-carboxylic acid (1H-tetrazol-5-yl)-amide] |  | 10 | 
22 | O=C(NCCCN1CCCC1)c1nc(-c2ccc(Cl)cc2)cs1 [B59, 4-(4-Chloro-phenyl)-thiazole-2-carboxylic acid (3-pyrrrolidin-1-yl-propyl)-amide] |  |  | Recombinant SK (% inhibition) (recombinant human SK): 46%
23 | O=C(NCCc1ccc(Oc2ccccc2)cc1)C12CC3CC(C1)CC(c1ccc(Cl)cc1)(C3)C2 [A47, 3-(4-Chloro-phenyl)-adamantane-1-carboxylic acid [2-(4-phenoxy-phenyl)-ethyl]-amide] |  | 26 | 
24 | O=C(Nc1ncnc2[nH]cnc12)C12CC3CC(C1)CC(c1ccc(Cl)cc1)(C3)C2 [A73, 3-(4-Chloro-phenyl)-adamantane-1-carboxylic acid (9H-purin-6-yl)-amide] |  | 53 | 
25 | O=C(NCc1ccc(-c2ccccc2)cc1)C12CC3CC(C1)CC(c1ccc(Cl)cc1)(C3)C2 [A49, 3-(4-Chloro-phenyl)-adamantane-1-carboxylic acid (biphenyl-4-ylmethyl)-amide] |  | 33 | 
26 | CN1CCC(NCC23CC4CC(C2)CC(c2ccc(Cl)cc2)(C4)C3)CC1 [A82, [3-(4-Chloro-phenyl)-adamantan-1-ylmethyl]-(1-methyl-piperidin-4-yl)-amine] |  | 75 | 
27 | O=C(NCc1cc(C(F)(F)F)cc(C(F)(F)F)c1)C12CC3CC(C1)CC(c1ccc(Cl)cc1)(C3)C2 [A17, 3-(4-Chloro-phenyl)-adamantane-1-carboxylic acid 3,5-bis-trifluoromethyl-benzylamide] |  | 56 | 
28 | CC(NC(=O)C12CC3CC(C1)CC(c1ccc(Cl)cc1)(C3)C2)c1ccc(Cl)cc1 (stereo not drawn) [A28, 3-(4-Chloro-phenyl)-adamantane-1-carboxylic acid [1-(4-chloro-phenyl)-ethyl]-amide] |  | 6 | 
29 | FC(F)(F)c1ccc(CNCC23CC4CC(C2)CC(c2ccc(Cl)cc2)(C4)C3)cc1 [A77, [3-(4-Chloro-phenyl)-adamantan-1-ylmethyl]-(4-trifluoromethyl-benzyl)-amine] |  | 27 | 
30 | O=C(NCCCN1CCCC1)C12CC3CC(C1)CC(c1ccc(Cl)cc1)(C3)C2 [A54, 3-(4-Chloro-phenyl)-adamantane-1-carboxylic acid (3-pyrrolidin-1-yl-propyl)-amide] |  | 95 | 
31 | O=C(NC1CC1)C12CC3CC(C1)CC(c1ccc(Cl)cc1)(C3)C2 [A2, 3-(4-Chloro-phenyl)-adamantane-1-carboxylic acid cyclopropylamide] |  | 0 | 
32 | CSc1ccc(CNC(=O)C23CC4CC(C2)CC(c2ccc(Cl)cc2)(C4)C3)cc1 [A14, 3-(4-Chloro-phenyl)-adamantane-1-carboxylic acid 4-methylsulfanyl-benzylamide] |  | 19 | 
33 | Fc1cc(C(F)(F)F)ccc1CNCC12CC3CC(C1)CC(c1ccc(Cl)cc1)(C3)C2 [A78, [3-(4-Chloro-phenyl)-adamantan-1-ylmethyl]-(2-fluoro-4-trifluoromethyl-benzyl)-amine] |  | 43 | 
34 | O=C(/C=C/c1cnc[nH]1)C12CC3CC(C1)CC(c1ccc(Cl)cc1)(C3)C2 [A135, 1-[3-(4-Chloro-phenyl)-adamantan-1-yl]-3-(1H-imidazol-4-yl)-propenone] |  | 64 | 
35 | CC(C)(C)NCCCNC(=O)C12CC3CC(C1)CC(c1ccc(Cl)cc1)(C3)C2 [A53, 3-(4-Chloro-phenyl)-adamantane-1-carboxylic acid (3-tert-butylamino-propyl)-amide] |  | 52 | 
36 | O=C(NCc1cc(F)cc(C(F)(F)F)c1)C12CC3CC(C1)CC(c1ccc(Cl)cc1)(C3)C2 [A18, 3-(4-Chloro-phenyl)-adamantane-1-carboxylic acid 3-fluoro-5-trifluoromethyl-benzylamide] |  | 0 | 
